Experimental data from patent US20250144094A1 (Erasca, Inc., priority 2021, published 2025).

Biological target: Recombinant human ULK1 (1-649) (Homo sapiens (Human), UniProt O75385)
Experiment: ULK1 ADP Glo kinase activity assay, new method (ULKtide peptide substrate)
Details: 25° C., 40 minutes, read-out: ULK1 biochemical IC50
Outline: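 GST-tagged human ULK1 (1-649) from Sf9 cells was reacted with ULKtide peptide and ATP for 40 min at 25 °C across 12-point compound dilutions from 10 μM. ADP formed was quantified by ADP-Glo luminescence; IC50 came from four-parameter fits relative to DMSO controls.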

Chain of Recombinant human ULK1 (1-649) (O75385 1-649): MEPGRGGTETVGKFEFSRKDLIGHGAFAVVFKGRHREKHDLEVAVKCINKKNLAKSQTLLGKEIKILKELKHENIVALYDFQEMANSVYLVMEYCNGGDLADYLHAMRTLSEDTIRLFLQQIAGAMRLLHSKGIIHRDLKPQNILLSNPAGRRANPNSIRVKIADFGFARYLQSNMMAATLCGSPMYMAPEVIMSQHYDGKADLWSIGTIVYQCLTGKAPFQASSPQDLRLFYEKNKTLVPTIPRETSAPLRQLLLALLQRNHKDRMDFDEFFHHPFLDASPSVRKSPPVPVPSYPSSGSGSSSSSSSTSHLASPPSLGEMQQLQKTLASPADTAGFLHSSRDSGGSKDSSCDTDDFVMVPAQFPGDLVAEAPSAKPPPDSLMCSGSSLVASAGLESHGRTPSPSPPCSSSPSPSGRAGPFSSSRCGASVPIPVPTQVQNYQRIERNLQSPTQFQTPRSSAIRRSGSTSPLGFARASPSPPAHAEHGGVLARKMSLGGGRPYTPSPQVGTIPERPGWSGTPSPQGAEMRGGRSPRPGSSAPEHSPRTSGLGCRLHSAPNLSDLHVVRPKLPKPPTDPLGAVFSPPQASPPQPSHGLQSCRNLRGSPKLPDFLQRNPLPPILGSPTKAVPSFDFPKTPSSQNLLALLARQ

IC50 [nM] | SMILES
≤ 5 | O=C1c2sc(-c3nc(Nc4cc5c(cc4C4CC4)CCNC5)ncc3C(F)(F)F)cc2S(=O)(=O)CCN1C1CC1 [Example 224, 4-cyclopropyl-7-(2-((6-cyclopropyl-1,2,3,4-tetrahydroisoquinolin-7-yl)amino)-5-(trifluoromethyl)pyrimidin-4-yl)-3,4-dihydrothieno[2,3-f][1,4]thiazepin-5(2H)-one 1,1-dioxide]
≤ 5 | O=C1c2sc(-c3nc(Nc4cc5c(cc4C4CC4)CCNC5)ncc3C(F)(F)F)cc2S(=O)(=O)CCN1C1CCC1 [Example 225, 4-cyclobutyl-7-(2-((6-cyclopropyl-1,2,3,4-tetrahydroisoquinolin-7-yl)amino)-5-(trifluoromethyl)pyrimidin-4-yl)-3,4-dihydrothieno[2,3-f][1,4]thiazepin-5(2H)-one 1,1-dioxide]
≤ 5 | CCc1cc2c(cc1Nc1ncc(C(F)(F)F)c(-c3cc4c(s3)C(=O)N(C3CC3)CCS4(=O)=O)n1)CCN(CC)C2 [Example 228, 4-cyclopropyl-7-(2-((2,7-diethyl-1,2,3,4-tetrahydroisoquinolin-6-yl)amino)-5-(trifluoromethyl)pyrimidin-4-yl)-3,4-dihydrothieno[2,3-f][1,4]thiazepin-5(2H)-one 1,1-dioxide]
≤ 5 | CCN1CCc2cc(Nc3ncc(C(F)(F)F)c(-c4cc5c(s4)C(=O)N(C4CC4)CCS5(=O)=O)n3)c(C3CC3)cc2C1 [Example 233, 4-cyclopropyl-7-(2-((7-cyclopropyl-2-ethyl-1,2,3,4-tetrahydroisoquinolin-6-yl)amino)-5-(trifluoromethyl)pyrimidin-4-yl)-3,4-dihydrothieno[2,3-f][1,4]thiazepin-5(2H)-one 1,1-dioxide]
≤ 5 | O=C1c2sc(-c3nc(Nc4cc5c(cc4C4CC4)CN(CC4COC4)CC5)ncc3C(F)(F)F)cc2S(=O)(=O)CCN1C1CC1 [Example 234, 4-cyclopropyl-7-(2-((7-cyclopropyl-2-(oxetan-3-ylmethyl)-1,2,3,4-tetrahydroisoquinolin-6-yl)amino)-5-(trifluoromethyl)pyrimidin-4-yl)-3,4-dihydrothieno[2,3-f][1,4]thiazepin-5(2H)-one 1,1-dioxide]
≤ 5 | O=C1c2sc(-c3nc(Nc4cc5c(cc4C4CC4)CN(CC4CC4)CC5)ncc3C(F)(F)F)cc2S(=O)(=O)CCN1C1CC1 [Example 235, 4-cyclopropyl-7-(2-((7-cyclopropyl-2-(cyclopropylmethyl)-1,2,3,4-tetrahydroisoquinolin-6-yl)amino)-5-(trifluoromethyl)pyrimidin-4-yl)-3,4-dihydrothieno[2,3-f][1,4]thiazepin-5(2H)-one 1,1-dioxide]
≤ 5 | CN1CCS(=O)(=O)c2cc(-c3nc(Nc4cc5c(cc4C4CC4)CN(CCF)CC5)ncc3C(F)(F)F)sc2C1=O [Example 236, 7-(2-((7-cyclopropyl-2-(2-fluoroethyl)-1,2,3,4-tetrahydroisoquinolin-6-yl)amino)-5-(trifluoromethyl)pyrimidin-4-yl)-4-methyl-3,4-dihydrothieno[2,3-f][1,4]thiazepin-5(2H)-one 1,1-dioxide]
≤ 5 | CCc1cc2c(cc1Nc1ncc(C(F)(F)F)c(-c3cc4c(s3)C(=O)N(C3CC3)CCS4(=O)=O)n1)CCN(CC1CC1)C2 [Example 242, 4-cyclopropyl-7-(2-((2-(cyclopropylmethyl)-7-ethyl-1,2,3,4-tetrahydroisoquinolin-6-yl)amino)-5-(trifluoromethyl)pyrimidin-4-yl)-3,4-dihydrothieno[2,3-f][1,4]thiazepin-5(2H)-one 1,1-dioxide]
≤ 5 | CCN1CCc2cc(Nc3ncc(C(F)(F)F)c(-c4cc5c(s4)C(=O)N(C4COC4)CCS5(=O)=O)n3)c(C3CC3)cc2C1 [Example 244, 7-(2-((7-cyclopropyl-2-ethyl-1,2,3,4-tetrahydroisoquinolin-6-yl)amino)-5-(trifluoromethyl)pyrimidin-4-yl)-4-(oxetan-3-yl)-3,4-dihydrothieno[2,3-f][1,4]thiazepin-5(2H)-one 1,1-dioxide]

Continued, molecule first:

SMILES | IC50 [nM]
CCc1cc2c(cc1Nc1ncc(C(F)(F)F)c(-c3cc4c(s3)C(=O)N(C3CC3)CCS4(=O)=O)n1)CNCC2 [Example 220, 4-cyclopropyl-7-(2-((6-ethyl-1,2,3,4-tetrahydroisoquinolin-7-yl)amino)-5-(trifluoromethyl)pyrimidin-4-yl)-3,4-dihydrothieno[2,3-f][1,4]thiazepin-5(2H)-one 1,1-dioxide] | ≤ 5
CCc1cc2c(cc1Nc1ncc(C(F)(F)F)c(-c3cc4c(s3)C(=O)N(C3CCC3)CCS4(=O)=O)n1)CNCC2 [Example 221, 4-cyclobutyl-7-(2-((6-ethyl-1,2,3,4-tetrahydroisoquinolin-7-yl)amino)-5-(trifluoromethyl)pyrimidin-4-yl)-3,4-dihydrothieno[2,3-f][1,4]thiazepin-5(2H)-one 1,1-dioxide] | ≤ 5
CCc1cc2c(cc1Nc1ncc(C(F)(F)F)c(-c3cc4c(s3)C(=O)N(C)CCS4(=O)=O)n1)CCN(CC)C2 [Example 222, 7-(2-((2,7-diethyl-1,2,3,4-tetrahydroisoquinolin-6-yl)amino)-5-(trifluoromethyl)pyrimidin-4-yl)-4-methyl-3,4-dihydrothieno[2,3-f][1,4]thiazepin-5(2H)-one 1,1-dioxide] | ≤ 5
CCc1cc2c(cc1Nc1ncc(C(F)(F)F)c(-c3cc4c(s3)C(=O)N(C)CCS4(=O)=O)n1)CCN(CC1CC1)C2 [Example 223, 7-(2-((2-(cyclopropylmethyl)-7-ethyl-1,2,3,4-tetrahydroisoquinolin-6-yl)amino)-5-(trifluoromethyl)pyrimidin-4-yl)-4-methyl-3,4-dihydrothieno[2,3-f][1,4]thiazepin-5(2H)-one 1,1-dioxide] | ≤ 5
O=C1c2sc(-c3nc(Nc4cc5c(cc4Cl)CN(CCF)CC5)ncc3C(F)(F)F)cc2S(=O)(=O)CCN1C1CC1 [Example 227, 7-(2-((7-chloro-2-(2-fluoroethyl)-1,2,3,4-tetrahydroisoquinolin-6-yl)amino)-5-(trifluoromethyl)pyrimidin-4-yl)-4-cyclopropyl-3,4-dihydrothieno[2,3-f][1,4]thiazepin-5(2H)-one 1,1-dioxide] | ≤ 5
O=C1c2sc(-c3nc(Nc4cc5c(cc4Cl)CCNC5)ncc3C(F)(F)F)cc2S(=O)(=O)CCN1C1COC1 [Example 230, 7-(2-((6-chloro-1,2,3,4-tetrahydroisoquinolin-7-yl)amino)-5-(trifluoromethyl)pyrimidin-4-yl)-4-(oxetan-3-yl)-3,4-dihydrothieno[2,3-f][1,4]thiazepin-5(2H)-one 1,1-dioxide] | ≤ 5
CN1CCS(=O)(=O)c2cc(-c3nc(Nc4cc5c(cc4C4CC4)CCNC5)ncc3C(F)(F)F)sc2C1=O [Example 231, 7-(2-((6-cyclopropyl-1,2,3,4-tetrahydroisoquinolin-7-yl)amino)-5-(trifluoromethyl)pyrimidin-4-yl)-4-methyl-3,4-dihydrothieno[2,3-f][1,4]thiazepin-5(2H)-one 1,1-dioxide] | ≤ 5
O=C1c2sc(-c3nc(Nc4cc5c(cc4C4CC4)CCNC5)ncc3C(F)(F)F)cc2S(=O)(=O)CCN1CC(F)(F)F [Example 232, 7-(2-((6-cyclopropyl-1,2,3,4-tetrahydroisoquinolin-7-yl)amino)-5-(trifluoromethyl)pyrimidin-4-yl)-4-(2,2,2-trifluoroethyl)-3,4-dihydrothieno[2,3-f][1,4]thiazepin-5(2H)-one 1,1-dioxide] | ≤ 5
CN1CCS(=O)(=O)c2cc(-c3nc(Nc4cc5c(cc4Cl)CN(CCF)CC5)ncc3C(F)(F)F)sc2C1=O [Example 237, 7-(2-((7-chloro-2-(2-fluoroethyl)-1,2,3,4-tetrahydroisoquinolin-6-yl)amino)-5-(trifluoromethyl)pyrimidin-4-yl)-4-methyl-3,4-dihydrothieno[2,3-f][1,4]thiazepin-5(2H)-one 1,1-dioxide] | ≤ 5
CN1CCS(=O)(=O)c2cc(-c3nc(Nc4ccc(N5CCNCC5)cc4C4CC4)ncc3C(F)(F)F)sc2C1=O [Example 238, 7-(2-((2-cyclopropyl-4-(piperazin-1-yl)phenyl)amino)-5-(trifluoromethyl)pyrimidin-4-yl)-4-methyl-3,4-dihydrothieno[2,3-f][1,4]thiazepin-5(2H)-one 1,1-dioxide] | 5 to 10
O=C1c2sc(-c3nc(Nc4ccc(N5CCNCC5)cc4C4CC4)ncc3C(F)(F)F)cc2S(=O)(=O)CCN1C1CC1 [Example 239, 4-cyclopropyl-7-(2-((2-cyclopropyl-4-(piperazin-1-yl)phenyl)amino)-5-(trifluoromethyl)pyrimidin-4-yl)-3,4-dihydrothieno[2,3-f][1,4]thiazepin-5(2H)-one 1,1-dioxide] | ≤ 5
O=C1c2sc(-c3nc(Nc4ccc(C5CCNCC5)cc4C4CC4)ncc3C(F)(F)F)cc2S(=O)(=O)CCN1C1CC1 [Example 240, 4-cyclopropyl-7-(2-((2-cyclopropyl-4-(piperidin-4-yl)phenyl)amino)-5-(trifluoromethyl)pyrimidin-4-yl)-3,4-dihydrothieno[2,3-f][1,4]thiazepin-5(2H)-one 1,1-dioxide] | ≤ 5
O=C1c2sc(-c3nc(Nc4ccc(C5CCN(CC6CC6)CC5)cc4C4CC4)ncc3C(F)(F)F)cc2S(=O)(=O)CCN1C1CC1 [Example 241, 4-cyclopropyl-7-(2-((2-cyclopropyl-4-(1-(cyclopropylmethyl)piperidin-4-yl)phenyl)amino)-5-(trifluoromethyl)pyrimidin-4-yl)-3,4-dihydrothieno[2,3-f][1,4]thiazepin-5(2H)-one 1,1-dioxide] | ≤ 5
CCc1cc2c(cc1Nc1ncc(C(F)(F)F)c(-c3cc4c(s3)C(=O)N(C3CC3)CCS4(=O)=O)n1)CCN(CCF)C2 [Example 243] | ≤ 5
CN1CCS(=O)(=O)c2cc(-c3nc(Nc4cc5c(cc4Cl)CN(CC4CC4)CC5)ncc3C(F)(F)F)sc2C1=O [Example 246, 7-(2-((7-chloro-2-(cyclopropylmethyl)-1,2,3,4-tetrahydroisoquinolin-6-yl)amino)-5-(trifluoromethyl)pyrimidin-4-yl)-4-methyl-3,4-dihydrothieno[2,3-f][1,4]thiazepin-5(2H)-one 1,1-dioxide] | ≤ 5
